Measured values from patent publication US20080063628A1, “METHODS TO PROMOTE CELL DIFFERENTIATION” (priority 2006, published 2008).

Test system: late passage (P14) pancreatic-derived stromal cell line
Assay: Two sequential low dose trichostatin A treatments, gene expression by RT-PCR (Example 7)
Format: cell-based, human
Conditions: for HNF (HNF-3 beta) gene expression / Insulin gene expression / Pdx-1 gene expression / glucagon gene expression: 1.25 μM 0-24 h + 96-120 h
Experimental: Several cell lines obtained from different amniotic fluid specimens (see Example 14) and pancreas donors (see Example 13) were tested with similar results. Two lines at similar passage number but derived from different amniotic fluid specimens are shown in Table VII-A and Table VII-B for this example. One of these cell lines was also used in examples 2 and 4 above. In addition, this example also contains comparison data in Table VII-C and Table VII-D for a single pancreatic-derived stromal line grown to early and late passage number.
Amniotic fluid derived cells or pancreatic-derived stromal cells were seeded into 24-well tissue culture plates at a density of 5000/cm^2 and cultured in AMNIOMAX (Invitrogen) or DMEM with 10% FBS respectively under standard cell culture conditions until confluent. After the cells reached confluency, amniotic fluid derived cells were treated at time 0 hours with a dose of 500 nM trichostatin A, and pancreatic-derived stromal cells were treated with a dose of 1.25 μM trichostatin A solubilized in DMSO and medium. At time 24 hours, cell cultures underwent a complete medium change to remove all traces of trichostatin A. At time 96 hours, cell cultures were re-fed with fresh medium and received a second dose of trichostatin A at the same concentration as used previously. At time 120 hours, cell cultures again underwent a complete medium change and were cultured for an additional 24 hours or […] total incubation time.
Samples were taken daily for RT-PCR at the times indicated in Table VII-A to D. The culture medium was removed, and samples were rinsed in PBS then collected in RLT with β-mercaptoethanol (Qiagen). RNA was purified using the RNeasy Mini Kit (Qiagen) and RNA quantity and quality were determined using a spectrophotometer. cDNA was made using the iScript cDNA synthesis kit (BioRad).
Samples of 20 ng cDNA were used in each reaction to determine the expression levels of the following genes in amniotic fluid-derived cells: Gata1, HNF-3 beta, Pdx-1, insulin, and Sox17. Similarly, samples of 20 ng cDNA were used in each reaction to determine the expression level of the following genes in pancreatic-derived cells: glucagon, HNF-3 beta, insulin and Pdx-1. Real-Time PCR was performed on the Applied Biosystems 7500, and data was analyzed using the accompanying software according to the methods described in Example 15.
Real-time PCR amplifcation and quantitative analysis. Unless otherwise stated, all reagents were purchased from Applied Biosystems. Real-time PCR reactions were performed using the ABI PRISM™ 7500 Sequence Detection System. TAQMAN™ FAST UNIVERSAL PCR MASTER MIX™ (ABI, CA) was used with 20 ng of reverse transcribed RNA in a total reaction volume of 20 μl. Each cDNA sample was run in duplicate to allow correction of pipetting errors. Primers and FAM-labeled TAQMAN™ probes were used at concentrations of 200 nM. The level of expression for each target gene was normalized using the pre-developed Applied Biosystem's human glyceraldehyde-3-phosphate dehydrogenase (GAPDH) endogenous control kit. Primers and probes were designed using either ABI PRISM PRIMER EXPRESS™ software or a pre-developed ABI gene analysis kit. For each gene, either one of the primers or the probe were designed to be exon-boundary spanning. This eliminated the possibility of the primers/probe binding to any genomic DNA present. The primer and probe sets are listed as follows: Pdx-1 (Hs00426216), Insulin (Hs00355773), glucagon (Hs00174967), and FoxA2 (HNF 3-beta) (Hs00232764). The remaining primers were designed using the PRIMERS program (ABI, CA). After an initial 95° C. incubation for 20 sec, samples were cycled 40 times in two stages: a denaturation step at 95° C. for 3 sec, followed by an annealing/extension step at 60° C. for 30 sec. […]

[1] = 1.25 μM, after the second treatment cycle
[2] = 1.25 μM, following first treatment

SMILES: CC(/C=C/C(=O)NO)=C\[C@@H](C)C(=O)c1ccc(N(C)C)cc1 [trichostatin A]
- HNF (HNF-3 beta) gene expression (24 hrs): + (detectable between 35 and 40 cycles by RT-PCR)
- Insulin gene expression (24 hrs): nd (not detectable at >40 cycles by RT-PCR)
- Pdx-1 gene expression (24 hrs): +++ (detectable at less than 35 cycles by RT-PCR with SE less than 0.9)
- glucagon gene expression (24 hrs): +++ (detectable at less than 35 cycles by RT-PCR with SE less than 0.9)
- HNF (HNF-3 beta) gene expression (48 hrs): nd (not detectable at >40 cycles by RT-PCR)
- Pdx-1 gene expression (48 hrs): nd (not detectable at >40 cycles by RT-PCR)
- glucagon gene expression (48 hrs): +++ (detectable at less than 35 cycles by RT-PCR with SE less than 0.9)
- HNF (HNF-3 beta) gene expression (72 hrs): nd (not detectable at >40 cycles by RT-PCR)
- Insulin gene expression (72 hrs): nd (not detectable at >40 cycles by RT-PCR)
- Pdx-1 gene expression (72 hrs): nd (not detectable at >40 cycles by RT-PCR)
- glucagon gene expression (72 hrs): + (detectable between 35 and 40 cycles by RT-PCR)
- HNF (HNF-3 beta) gene expression (96 hrs): nd (not detectable at >40 cycles by RT-PCR)
- Insulin gene expression (96 hrs): nd (not detectable at >40 cycles by RT-PCR)
- Pdx-1 gene expression (96 hrs): nd (not detectable at >40 cycles by RT-PCR)
- glucagon gene expression (96 hrs): nd (not detectable at >40 cycles by RT-PCR)
- HNF (HNF-3 beta) gene expression (120 hrs): +++ (detectable at less than 35 cycles by RT-PCR with SE less than 0.9)
- Insulin gene expression (120 hrs): nd (not detectable at >40 cycles by RT-PCR)
- Pdx-1 gene expression (120 hrs): ++ (detectable at less than 35 cycles by RT-PCR with SE greater than 0.9)
- HNF (HNF-3 beta) gene expression (144 hrs): nd (not detectable at >40 cycles by RT-PCR)
- Insulin gene expression (144 hrs): nd (not detectable at >40 cycles by RT-PCR)
- Pdx-1 gene expression (144 hrs): nd (not detectable at >40 cycles by RT-PCR)
- glucagon gene expression (144 hrs): + (detectable between 35 and 40 cycles by RT-PCR)
- HNF-3 beta RT-PCR detection cycle [1]: 34 cycles
- Pdx-1 RT-PCR detection cycle [1]: 34 cycles
- glucagon RT-PCR detection cycle [1]: 36 cycles
- HNF-3β RT-PCR detection cycle [2]: 33 cycles
- Pdx-1 RT-PCR detection cycle [2]: 33 cycles
- glucagon RT-PCR detection cycle [2]: 33 cycles
